Legend:
Candida albicans (138) = assay: L-serine-aminopeptidase activity on gelled medium, Example 7; format: cell-based; details: 0.3 g/l, 18 to 24 hours
Protocol: (§1) A gelled medium comprising L-seryl-9-(4-amino-phenyl)acridine (hereinafter referred to as L-Ser-4-APA) is prepared as follows: 30 milligrams of L-Ser-4-APA are added to 4 grams of Columbia agar, that are added to 0.1 liter of distilled water and then autoclaved. This reaction medium is autoclaved at 116° C. for 20 minutes.
(§2) Microorganisms derived from the applicant's collection were seeded onto this medium using a suspension of 0.5 McFarland. The dishes were incubated at 37° C. for 24 hours. Samples of 10 μl of each suspension were cultured so as to produce colonies. The colonies formed were examined visually after incubation for 18 to 24 hours.
(§3) The color of these colonies was noted before and after the addition of a drop of acetic acid, hereinafter referred to as GAA (glacial acetic acid).

[1] = tested on: Enterococcus faecalis (117); assay: as above; format: cell-based; details: 0.3 g/l, 18 to 24 hours
Protocol: as §1, §2, §3

[2] = tested on: Yersinia enterocolitica (061); assay: as above; format: cell-based; details: 0.3 g/l, 18 to 24 hours
Protocol: as §1, §2, §3

[3] = tested on: Klebsiella pneumoniae (012); assay: as above; format: cell-based; details: 0.3 g/l, 18 to 24 hours
Protocol: as §1, §2, §3

Escherichia coli (009) = assay: as above; format: cell-based; details: 0.3 g/l, 18 to 24 hours
Protocol: as §1, §2, §3

[4] = tested on: Staphylococcus aureus (008); assay: as above; format: cell-based; details: 0.3 g/l, 18 to 24 hours
Protocol: as §1, §2, §3

[5] = substrate dissolution in autoclaved Columbia agar medium; format: physicochemical; details: 30 milligrams with 4 grams of Columbia agar in 0.1 liter of distilled water, autoclaved at 116° C. for 20 minutes
Protocol: as §1

[6] = tested on: Staphylococcus aureus (NCTC 6571); assay: t-BOC-L-alanyl-L-alanyl-L-alanyl-peptidase activity on gelled medium, Example 11; format: cell-based; design: key: ++ means good growth; + means moderate growth; +/− means poor growth; NG means no growth
Protocol: (§4) A gelled medium comprising this substrate is prepared as follows: 30 mg of the substrate are dissolved (heating) in 10 ml of sterile distilled water. Ten ml of this solution are then added to 90 ml of Columbia agar, kept molten at 50° C.
(§5) Various strains of microorganisms derived from the NCTC collection (National Collection of Type Cultures, Colindale, UK) were seeded onto the media thus obtained according to the multipoint inoculation described in example 8 above.
(§6) The colonies formed were examined visually after incubation for 24 h and 48 h. The color and the growth of these colonies were noted.

[7] = tested on: Enterococcus faecalis (NCTC 755); assay: as above; format: cell-based; design: key: ++ means good growth; + means moderate growth; +/− means poor growth; NG means no growth
Protocol: as §4, §5, §6

[8] = tested on: Enterococcus faecalis (NCTC 12697); assay: as above; format: cell-based; design: key to growth: ++ means good growth; + means moderate growth; +/− means poor growth; NG means no growth
Protocol: as §4, §5, §6

[9] = tested on: Pseudomonas aeruginosa (NCTC 10662); assay: as above; format: cell-based; design: key to growth: ++ means good growth; + means moderate growth; +/− means poor growth; NG means no growth
Protocol: as §4, §5, §6

[10] = tested on: Shigella sonnei (NCTC 9774); assay: as above; format: cell-based; design: key to growth: ++ means good growth; + means moderate growth; +/− means poor growth; NG means no growth
Protocol: as §4, §5, §6

[11] = tested on: Escherichia coli O157 (NCTC 12079); assay: as above; format: cell-based; design: key to growth: ++ means good growth; + means moderate growth; +/− means poor growth; NG means no growth
Protocol: as §4, §5, §6

[12] = tested on: Staphylococcus aureus (NCTC 11939); assay: as above; format: cell-based; design: key to growth: ++ means good growth; + means moderate growth; +/− means poor growth; NG means no growth
Protocol: as §4, §5, §6

[13] = tested on: Enterococcus faecium (NCTC 7171); assay: as above; format: cell-based; design: key to growth: ++ means good growth; + means moderate growth; +/− means poor growth; NG means no growth
Protocol: as §4, §5, §6

[14] = tested on: Klebsiella pneumonia (NCTC 10896); assay: as above; format: cell-based; design: key to growth: ++ means good growth; + means moderate growth; +/− means poor growth; NG means no growth
Protocol: as §4, §5, §6

[15] = tested on: Salmonella typhimurium (NCTC 74); assay: as above; format: cell-based; design: key to growth: ++ means good growth; + means moderate growth; +/− means poor growth; NG means no growth
Protocol: as §4, §5, §6

[16] = tested on: Serratia marcescens (NCTC 10211); assay: as above; format: cell-based; design: key to growth: ++ means good growth; + means moderate growth; +/− means poor growth; NG means no growth
Protocol: as §4, §5, §6

[17] = tested on: Burkholderia cepacia (NCTC 10743); assay: as above; format: cell-based; design: key to growth: ++ means good growth; + means moderate growth; +/− means poor growth; NG means no growth
Protocol: as §4, §5, §6

[18] = tested on: Salmonella poona (NCTC 4840); assay: as above; format: cell-based; design: key to growth: ++ means good growth; + means moderate growth; +/− means poor growth; NG means no growth
Protocol: as §4, §5, §6

[19] = tested on: Enterobacter cloacae (NCTC 11936); assay: as above; format: cell-based; design: key to growth: ++ means good growth; + means moderate growth; +/− means poor growth; NG means no growth
Protocol: as §4, §5, §6

[20] = tested on: Listeria monocytogenes (NCTC 11994); assay: as above; format: cell-based; design: key to growth: ++ means good growth; + means moderate growth; +/− means poor growth; NG means no growth
Protocol: as §4, §5, §6

N[C@@H](CO)C(=O)Nc1ccc(-c2c3ccccc3nc3ccccc23)cc1 [L-Ser-4-APA, L-Seryl-9-(4-aminophenyl)acridine]
Most of the substrate is in solution: substrate in solution in the medium [5]
pale orange: Color ([2]; after GAA) | Color ([3]; after GAA) | Color (Escherichia coli (009); after GAA)
2: Intensity ([2]; after GAA) | Intensity ([3]; after GAA) | Intensity (Escherichia coli (009); after GAA)
cream: Color (Candida albicans (138); after GAA) | Color (Candida albicans (138); before GAA) | Color ([1]; after GAA) | Color ([1]; before GAA) | Color ([2]; before GAA) | Color ([3]; before GAA) | Color (Escherichia coli (009); before GAA) | Color ([4]; after GAA) | Color ([4]; before GAA)

C[C@H](NC(=O)OC(C)(C)C)C(=O)N[C@@H](C)C(=O)N[C@@H](C)C(=O)Nc1ccc(-c2c3ccccc3[n+](C)c3ccccc23)cc1.[Cl-] [t-BOC-L-Ala-Ala-Ala-4-AP-10-MA, t-BOC-L-alanyl-L-alanyl-L-alanyl-9-(4-aminophenyl)-10-methylacridine]
+/−: growth ([8]; 24 h) | growth ([8]; 48 h) | growth ([13]; 24 h) | growth ([20]; 24 h)
Colorless: color of colonies ([8]; 24 h) | color of colonies ([8]; 48 h) | color of colonies ([12]; 24 h) | color of colonies ([12]; 48 h) | color of colonies ([13]; 24 h) | color of colonies ([13]; 48 h) | color of colonies ([20]; 24 h) | color of colonies ([20]; 48 h)
Pale orange: color of colonies ([9]; 24 h) | color of colonies ([10]; 24 h) | color of colonies ([10]; 48 h) | color of colonies ([11]; 24 h) | color of colonies ([11]; 48 h) | color of colonies ([15]; 24 h) | color of colonies ([15]; 48 h) | color of colonies ([18]; 24 h) | color of colonies ([18]; 48 h)
Orange: color of colonies ([14]; 24 h) | color of colonies ([14]; 48 h) | color of colonies ([16]; 24 h) | color of colonies ([16]; 48 h) | color of colonies ([17]; 24 h) | color of colonies ([17]; 48 h) | color of colonies ([19]; 24 h) | color of colonies ([19]; 48 h)
+: growth ([12]; 24 h) | growth ([12]; 48 h) | growth ([20]; 48 h)
(++): growth ([9]; 24 h) | growth ([10]; 24 h) | growth ([11]; 24 h) | growth ([15]; 24 h) | growth ([18]; 24 h)
NG: growth ([6]; 24 h) | growth ([6]; 48 h) | growth ([7]; 24 h) | growth ([7]; 48 h)
++: growth ([9]; 48 h) | growth ([10]; 48 h) | growth ([11]; 48 h) | growth ([13]; 48 h) | growth ([14]; 24 h) | growth ([14]; 48 h) | growth ([15]; 48 h) | growth ([16]; 24 h) | growth ([16]; 48 h) | growth ([17]; 24 h) | growth ([17]; 48 h) | growth ([18]; 48 h) | growth ([19]; 24 h) | growth ([19]; 48 h)
Pale Orange: color of colonies ([9]; 48 h)
